# Patent publication US9366682B2, “Use of stathmin as a biomarker of drug response to furazanobenzimidazoles” (BASILEA PHARMACEUTICA AG, priority 2011, dated 2016)
# Legend:
# Format in all cases: cell-based, human
# A549 NSCLC cells = test: Immunofluorescent staining of microtubules in cultured cells; conditions: for Microtubule phenotype: A549, 24 hours treatment, mitotic or G2/M arrested cells, anti-alpha-tubulin staining, BAL27862 50 nM, Compound B 80 nM, Compound C 20 nM; for Microtubule phenotype, combination treatment: colchicine
# Procedure: (§1) A549 human non-small cell lung cancer (NSCLC, ATCC reference number CCL-185) cells, HeLa cervical cancer cells (ATCC reference number CCL-2) and SKBR3 breast carcinoma cells (ATCC reference number HTB-30) were seeded at densities of 50% on round microscope coverslips and cultured for 24 hours in RPMI-1640 containing 10% FCS (also referred to as FBS) at 37° C., 5% CO2. Compounds to be tested were dissolved in DMSO. The cell culture medium was replaced with medium containing the diluted compound(s) (paclitaxel, vinblastine, colchicine and nocodazole were purchased from Sigma-Aldrich) or vehicle. After treatment for the times indicated in the Brief Description of the Figures, coverslips were washed and cells were fixed in methanol/acetone (1:1) for 5 minutes at room temperature and subsequently incubated in blocking buffer (0.5% BSA and 0.1% TX-100 in PBS) for 30 minutes at room temperature. Specimens were then incubated with anti-alpha-tubulin antibody (Sigma, 1:2000) for 1 hour at room temperature in blocking buffer. After several washing steps cells were incubated with AlexaFluor-488 goat-anti-mouse IgG (Molecular Probes, 1:3000) for 1 hour at room temperature followed by several washing steps with blocking buffer. Specimens were then mounted with ProLong Gold antifade (Molecular Probes), sealed with nail polish and examined with a Leica immunofluorescence microscope. Images were captured with a cooled CCD-camera and processed by ImageJ software.
# [1] = tested on: GXF 251 patient-derived gastric tumour cells; test: Colony outgrowth assay, patient-derived gastric tumour GXF 251; set-up: key to Response (sensitive/resistant): BAL27862-sensitive tumour cells were those that had IC70 values in the low nanomolar range; BAL27862-resistant tumour cells had IC70 values >600 nanomolar; conditions: for Response (sensitive/resistant): colony outgrowth, Gastric GXF 251, by IC70 criteria
# Procedure: (§2) Single cell suspensions of patient-derived tumour xenografts (maintained in nude mice) were prepared. For colony outgrowth assays, cells were plated in soft agar in 24-well plates according to the assay introduced by Hamburger & Salmon (Primary bioassay of human tumour stem cells, Science, 1977, 197:461-463). 2×10^4-6×10^4 cells in 0.2 mL medium containing 0.4% agar were plated out on a bottom layer of 0.75% agar. Test compounds were applied in 0.2 mL culture medium. Every 24-well plate contained untreated controls and samples in triplicates. Cultures were incubated at 37° C. and 7.5% CO2 for 5-28 days. 24 hours prior to analysis, vital colonies were stained with a solution of metabolizable tetrazolium salt (Alley M C et al, Life Sci. 1982, 31:3071-3078) and were counted with an automatic image analysis system (Omnicon 3600, Biosys GmbH).
# (§3) Relative drug effects were expressed by the ratio of the mean number of colonies in the treated wells and the control wells. IC70-values were determined by plotting compound concentrations versus relative colony counts.
# [2] = tested on: GXF 97 patient-derived gastric tumour cells; test: Colony outgrowth assay, patient-derived gastric tumour GXF 97; set-up: key to Response (sensitive/resistant): BAL27862-sensitive tumour cells were those that had IC70 values in the low nanomolar range; BAL27862-resistant tumour cells had IC70 values >600 nanomolar; conditions: for Response (sensitive/resistant): colony outgrowth, Gastric GXF 97, by IC70 criteria
# Procedure: as §2, §3
# [3] = tested on: LXFE211 patient-derived lung cancer cells; test: Colony outgrowth assay, patient-derived lung cancer LXFE211; set-up: key to Response (sensitive/resistant): BAL27862-sensitive tumour cells were those that had IC70 values in the low nanomolar range; BAL27862-resistant tumour cells had IC70 values >600 nanomolar; conditions: for Response (sensitive/resistant): colony outgrowth, Lung LXFE211, by IC70 criteria
# Procedure: as §2, §3
# [4] = tested on: MEXF 1341 patient-derived melanoma cells; test: Colony outgrowth assay, patient-derived melanoma MEXF 1341; set-up: key to Response (sensitive/resistant): BAL27862-sensitive tumour cells were those that had IC70 values in the low nanomolar range; BAL27862-resistant tumour cells had IC70 values >600 nanomolar; conditions: for Response (sensitive/resistant): colony outgrowth, melanoma MEXF 1341, by IC70 criteria
# Procedure: as §2, §3
# [5] = tested on: MEXF 276 patient-derived melanoma cells; test: Colony outgrowth assay, patient-derived melanoma MEXF 276; set-up: key to Response (sensitive/resistant): BAL27862-sensitive tumour cells were those that had IC70 values in the low nanomolar range; BAL27862-resistant tumour cells had IC70 values >600 nanomolar; conditions: for Response (sensitive/resistant): colony outgrowth, melanoma MEXF 276 (resistant model 1), by IC70 criteria
# Procedure: as §2, §3
# [6] = tested on: MEXF 989 patient-derived melanoma cells; test: Colony outgrowth assay, patient-derived melanoma MEXF 989; conditions: for Response (sensitive/resistant): colony outgrowth, melanoma MEXF 989 (resistant model 2), by IC70 criteria
# Procedure: as §2, §3
# [7] = tested on: LXFE397 patient-derived lung cancer cells; test: Colony outgrowth assay, patient-derived lung cancer LXFE397
# Procedure: as §2, §3
# [8] = tested on: HeLa cervical cancer cells; test: Immunofluorescent staining of microtubules in cultured cells; conditions: 24 hours treatment with 50 nM, anti-alpha-tubulin staining
# Procedure: as §1
# [9] = tested on: SKBR3 breast cancer cells; test: as above; conditions: SKBR3, 24 hours treatment with 50 nM, anti-alpha-tubulin staining
# Procedure: as §1
compound,measurement,setting,value
"Nc1ccc(C(=O)Cn2c(-c3nonc3N)nc3ccccc32)cc1 [Compound B, 2-[2-(4-Amino-furazan-3-yl)-benzoimidazol-1-yl]-1-(4-amino-phenyl)-ethanone]",Microtubule phenotype,A549 NSCLC cells,highly reproducible and distinct microtubule phenotype
"CC[C@]1(O)C[C@@H]2CN(CCc3c([nH]c4ccccc34)[C@@](C(=O)OC)(c3cc4c(cc3OC)N(C)[C@H]3[C@@](O)(C(=O)OC)[C@H](OC(C)=O)[C@]5(CC)C=CCN6CC[C@]43[C@@H]65)C2)C1 [vinblastine, reference compound]",Response (sensitive/resistant),[1],sensitive
same,Response (sensitive/resistant),[2],sensitive
same,Response (sensitive/resistant),[3],sensitive
same,Response (sensitive/resistant),[4],sensitive
same,Response (sensitive/resistant),[5],sensitive
same,Response (sensitive/resistant),[6],resistant (BAL27862-resistant tumour cells had IC70 values >600 nanomolar)
same,Microtubule phenotype,A549 NSCLC cells,mitotic microtubule phenotypes characteristic of these agents
"COc1cc2c(c(OC)c1OC)-c1ccc(OC)c(=O)cc1[C@@H](NC(C)=O)CC2 [colchicine, reference compound]",Microtubule phenotype,A549 NSCLC cells,mitotic microtubule phenotypes characteristic of these agents
"N#CCCNc1nonc1-c1nc2ccccc2n1CC(=O)c1ccc(N)cc1 [BAL27862, 3-(4-{1-[2-(4-Amino-phenyl)-2-oxo-ethyl]-1H-benzoimidazol-2-yl}-furazan-3-ylamino)-propionitrile]",IC70,"[1]; 70% growth inhibition versus controls, Gastric GXF 251",0.485 µM
same,Response (sensitive/resistant),[1],sensitive
same,IC70,"[2]; 70% growth inhibition versus controls, Gastric GXF 97",>3.5 µM
same,Response (sensitive/resistant),[2],resistant (BAL27862-resistant tumour cells had IC70 values >600 nanomolar)
same,IC70,"[3]; 70% growth inhibition versus controls, Lung LXFE211",0.021 µM
same,Response (sensitive/resistant),[3],sensitive
same,IC70,"[7]; 70% growth inhibition versus controls, Lung LXFE397",>3.5 µM
same,Response (sensitive/resistant),"[7]; colony outgrowth, Lung LXFE397, by IC70 criteria",resistant (BAL27862-resistant tumour cells had IC70 values >600 nanomolar)
same,IC70,"[4]; 70% growth inhibition versus controls, melanoma MEXF 1341",0.025 µM
same,Response (sensitive/resistant),[4],sensitive
same,IC70,"[5]; 70% growth inhibition versus controls, melanoma MEXF 276",>3.5 µM
same,IC70,"[6]; 70% growth inhibition versus controls, melanoma MEXF 989",>3.5 µM
same,"Microtubule phenotype, combination treatment","A549 NSCLC cells; A549, 24 hours BAL27862 with the final 4 hours including vinblastine, paclitaxel or nocodazole",no impact on the observed microtubule phenotype
same,Microtubule phenotype,A549 NSCLC cells,multiple dot-like structures
same,Microtubule phenotype,A549 NSCLC cells; listed as compound A,highly reproducible and distinct microtubule phenotype
same,"Microtubule phenotype, combination treatment","A549 NSCLC cells; A549, 24 hours vinblastine, paclitaxel or nocodazole with the final 4 hours including BAL27862",disruption of the microtubule structures
same,Microtubule phenotype,[8],highly reproducible and distinct microtubule phenotype
same,Microtubule phenotype,[9],highly reproducible and distinct microtubule phenotype
"COC(=O)Nc1nc2ccc(C(=O)c3cccs3)cc2[nH]1 [nocodazole, reference compound]",Microtubule phenotype,A549 NSCLC cells,mitotic microtubule phenotypes characteristic of these agents
"N#CCCNc1nonc1-c1nc2ccccc2n1CC(=O)c1ccc(N)nc1 [Compound C, 3-(4-{1-[2-(6-Amino-pyridin-3-yl)-2-oxo-ethyl]-1H-benzoimidazol-2-yl}-furazan-3-ylamino)-propionitrile]",Microtubule phenotype,A549 NSCLC cells,highly reproducible and distinct microtubule phenotype
"CC(=O)O[C@H]1C(=O)[C@@]2(C)[C@H]([C@H](OC(=O)c3ccccc3)[C@]3(O)C[C@H](OC(=O)[C@H](O)[C@@H](NC(=O)c4ccccc4)c4ccccc4)C(C)=C1C3(C)C)[C@]1(OC(C)=O)CO[C@@H]1C[C@@H]2O [paclitaxel, reference compound]",Response (sensitive/resistant),[1],resistant (BAL27862-resistant tumour cells had IC70 values >600 nanomolar)
same,Response (sensitive/resistant),[2],resistant (BAL27862-resistant tumour cells had IC70 values >600 nanomolar)
same,Response (sensitive/resistant),[3],esistant
same,Response (sensitive/resistant),[4],resistant (BAL27862-resistant tumour cells had IC70 values >600 nanomolar)
same,Response (sensitive/resistant),[5],resistant (BAL27862-resistant tumour cells had IC70 values >600 nanomolar)
same,Response (sensitive/resistant),[6],resistant (BAL27862-resistant tumour cells had IC70 values >600 nanomolar)
same,Microtubule phenotype,A549 NSCLC cells,mitotic microtubule phenotypes characteristic of these agents
